Assay results published in patent US20210269479A1, “USE OF CY[…] FOR TREATING CANCER” (Hepion Pharmaceuticals, Inc., priority 2020, published 2021).

System: human precision cut liver slices (PCLS)
Experiment: RNA-Seq of PCLS, Stimulation Protocol (TGFb/PDGF + CRV vs TGFb/PDGF + Vehicle)
Assay type: cell-based
Method: PCLS were obtained from 5 human donors who underwent resection of liver cancer. Replicate slices were collected from healthy margins of the resections and cultured for 4 or 6 days depending on the experimental protocol. In the Nonstimulation Protocol slices were cultured for 6 days and treated for the entire period with DMSO vehicle or 5 μM CRV431. In the Stimulation Protocol slices were rested for 1 day and then administered the cytokines, TGFβ and PDGF-BB, for 3 days to stimulate inflammation and fibrosis. DMSO vehicle, CRV431 (1 and 5 μM), Alk5i (10 μM), obeticholic acid (5 μM), elafibranor (5 μM), resmetirom (5 μM), and Aramchol (5 μM) were administered individually as drug treatments in the Stimulation Protocol concurrent with TGFβ+PDGF-BB. Culture medium treatments were replaced daily.
(d) Gene expression by RNA-Seq. RNA sequencing of the complete transcriptome (30 million reads per sample) was conducted on vehicle and 5 μM CRV431 treatment groups from 3 donors both from the Nonstimulation and Stimulation Protocols. Data were analyzed by bioinformatics software programs to identify genes that were differentially expressed between vehicle and CRV431 treatments.
For the evaluation done for (d), 12 samples corresponding to 3 different donor slides which underwent 4 different treatments were studied. the comparisons carried out in this analysis are: (1) TGFb/PDGF+CRV vs TGFb/PDGF+Vehicle (V), and (2) Non-stimulated+CRV vs Non-stimulated+Vehicle.
Heatmaps were also generated to plot significant differently expressed genes for the comparison TGFb/PDGF+CRV and TGFb/PDGF+Vehicle (p-adjust<0.05, log fold change>0.5). The heatmap with the samples grouped by group is shown in FIG. 3A to observe the different expression pattern present within the group (blue=vehicle; red=CRV). The same significant genes were also plotted into another heatmap (FIG. 3B) but the samples are now plotted grouped by donor in order to observe the differences between donors (blue=vehicle; red=CRV).
Significant differently expressed genes that were identified in the comparison TGFb/PDGF+CRV and TGFb/PDGF+Vehicle ([…], log fold change>0.5) are shown in Table 2. The fold change is relative to the treatment (CRV).
As shown in the PCA analysis, there is a strong effect of the donor. Therefore, each donor was analyzed individually. Counts comparison was performed for TGFb/PDGF+[…] vs TGFb/PDGF+Vehicle by donor. […] Therefore the vehicle group had at least 300 copies less than CRV treatment. In other words, the treatment had at least 300 copies more than the Vehicle. After doing this selection individually for each donor, a venn diagram was plotted showing the overlapping between all three donors.
So, they had at least 300 copies less in the CRV treatment compared to the vehicle. After doing the selection individually for each donor, a venn diagram was plotted showing the overlapping between all three donors.

[1] = TGFb/PDGF + CRV vs TGFb/PDGF + Vehicle, 5 μM
[2] = presence of exogenous TGFβ+PDGF-BB, all donors

CC[C@@H]1NC(=O)[C@H]([C@H](O)[C@H](C)CCCCCCNC(C)=O)N(C)C(=O)[C@H](C(C)C)N(C)C(=O)[C@H](CC(C)C)N(C)C(=O)[C@H](CC(C)C)N(C)C(=O)[C@@H](C)NC(=O)[C@H](C)NC(=O)[C@H](CC(C)C)N(C)C(=O)[C@H](C(C)C)NC(=O)[C@H](CC(C)C)N(C)C(=O)[C@@H](C)N(C)C1=O [CRV431]
log2FoldChange, gene AC009053.1 [1]: 1.194
log2FoldChange, gene AC134772.2 [1]: −4.561
log2FoldChange, gene ADH1B [1]: 2.156
log2FoldChange, gene ADH1C [1]: 1.869
log2FoldChange, gene ADH4 [1]: 2.123
log2FoldChange, gene ADH6 [1]: 1.903
log2FoldChange, gene ADIRF [1]: 1.402
log2FoldChange, gene APLNR [1]: 0.844
log2FoldChange, gene ASPG [1]: 0.91
log2FoldChange, gene ATP13A4 [1]: −3.082
log2FoldChange, gene C7 [1]: 0.739
log2FoldChange, gene CA11 [1]: −1.573
log2FoldChange, gene CBFA2T2 [1]: 1.299
log2FoldChange, gene CD93 [1]: −0.613
log2FoldChange, gene CHST1 [1]: −1.087
log2FoldChange, gene COL5A3 [1]: −0.842
log2FoldChange, gene CXADR [1]: 1.61
log2FoldChange, gene CYP4A11 [1]: 1.611
log2FoldChange, gene CYP26A1 [1]: −1.283
log2FoldChange, gene CYP26B1 [1]: −0.656
log2FoldChange, gene DCHS1 [1]: −0.686
log2FoldChange, gene DLL4 [1]: −0.69
log2FoldChange, gene DUOX2 [1]: −2.182
log2FoldChange, gene DVL1 [1]: 0.635
log2FoldChange, gene ENSG00000283623 (symbol NA) [1]: −5.759
log2FoldChange, gene ERVK13-1 [1]: −1.125
log2FoldChange, gene ESAM [1]: −0.573
log2FoldChange, gene ESM1 [1]: −1.401
log2FoldChange, gene ESR1 [1]: 3.688
log2FoldChange, gene F2RL3 [1]: −0.711
log2FoldChange, gene GLYATL1 [1]: 1.438
log2FoldChange, gene GPR4 [1]: −0.9
log2FoldChange, gene GRAP [1]: −0.772
log2FoldChange, gene HIST2H2AA4 [1]: −7.504
log2FoldChange, gene IGHV4-61 [1]: 7.957
log2FoldChange, gene IGLON5 [1]: −0.851
log2FoldChange, gene ISLR2 [1]: −1.27
log2FoldChange, gene KDM6A [1]: 0.785
log2FoldChange, gene LAMA4 [1]: −0.939
log2FoldChange, gene LIMS3 [1]: −1.705
log2FoldChange, gene LOXL2 [1]: −0.948
log2FoldChange, gene MCAM [1]: −0.841
log2FoldChange, gene MEF2C [1]: −1.013
log2FoldChange, gene MEG3 [1]: −0.853
log2FoldChange, gene MRC2 [1]: −0.773
log2FoldChange, gene MROH2A [1]: 3.641
log2FoldChange, gene MT-CO1 [1]: −0.85
log2FoldChange, gene NID2 [1]: −0.755
log2FoldChange, gene NXPH4 [1]: −0.808
log2FoldChange, gene PAN2 [1]: 1.019
log2FoldChange, gene PANK3 [1]: 0.687
log2FoldChange, gene PCDH12 [1]: −0.741
log2FoldChange, gene PHF8 [1]: 0.709
log2FoldChange, gene PKLR [1]: 2.127
log2FoldChange, gene PLXNA2 [1]: 1.326
log2FoldChange, gene POU6F1 [1]: −1.716
log2FoldChange, gene PPP1R16B [1]: −1.016
log2FoldChange, gene RALGPS2 [1]: 0.836
log2FoldChange, gene RBMXL1 [1]: −8.265
log2FoldChange, gene RCCD1 [1]: −1.838
log2FoldChange, gene RHCG [1]: −0.927
log2FoldChange, gene RPS7P1 [1]: 2.668
log2FoldChange, gene SLC4A8 [1]: −2.641
log2FoldChange, gene SLC26A6 [1]: −0.692
log2FoldChange, gene SLC39A5 [1]: 1.92
log2FoldChange, gene SMC5 [1]: 0.799
log2FoldChange, gene STRA6 [1]: −1.639
log2FoldChange, gene STX16 [1]: 1.025
log2FoldChange, gene TDO2 [1]: 0.916
log2FoldChange, gene TMEM70 [1]: 1.062
log2FoldChange, gene TTYH2 [1]: −1.114
log2FoldChange, gene UBD [1]: −1.035
log2FoldChange, gene VWA8 [1]: 1.514
log2FoldChange, gene ZC3H10 [1]: 1.022
log2FoldChange, gene ZDHHC20 [1]: 1.207
log2FoldChange, gene ZNF461 [1]: 1.391
expression of fibrosis-related genes by RNA-Seq (collagen genes, collagen hydroxylases and oxidases, ACTA2, VEGF, TIMPs): decreased expression of many fibrosis-related genes
fold change in RNA, DUOX2 [2]: −4.5 fold
fold change in RNA, ESM1 [2]: −2.6 fold
fold change in RNA, LOXL2 [2]: −1.9 fold
fold change in RNA, RCCD1 [2]: −3.6 fold
fold change in RNA, STRA6 [2]: −3.1 fold
fold change in RNA, UBD/FAT10 [2]: −2.0 fold
